The record followed here is US12091425B2 (AMGEN INC., priority 2016, dated 2024).

pIC50: −log10 of the molar value. Like-named read-outs stand apart in the source and are kept apart here.

For data set [1] the following is noted: rcm bond, 16-membered ring.
The test system of data set [2] is OPM-2 human multiple myeloma cell line. In words: Cell Viability Assay (OPM-2 10 FBS). It counts as cell-based. The conditions noted are these: OPM-2 cells, CellTiter-Glo. Summed up:
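OPM-2 myeloma cells, 3000/well in medium with 10% FBS, exposed to serially diluted compounds for 16 h at 37° C./5% CO2. Viability read by CellTiter-Glo luminescence; IC50 from 4-parameter logistic fit.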

In data set [3] the target is T1, Mcl-1/Bim interaction, recombinant human Mcl-1 (171-327) (Homo sapiens, UniProt Q07820).
T1 construct: made in house
T1 sequence (Q07820 171-327): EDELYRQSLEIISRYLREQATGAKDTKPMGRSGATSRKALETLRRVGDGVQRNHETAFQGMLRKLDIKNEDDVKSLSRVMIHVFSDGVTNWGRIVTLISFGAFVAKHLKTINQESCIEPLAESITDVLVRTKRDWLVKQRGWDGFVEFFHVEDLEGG
In words: Cell free Mcl-1: Bim Affinity Assay (Mcl-1 HTRF). Format: binding. Summed up: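 Read-out is time-resolved FRET after overnight incubation, using a biotin-labelled peptide from human Bim (51-76) as the binding partner; IC50 was derived from competition curves.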
In general terms: In TR-FRET formats the signal depends on donor and acceptor labels being close together.

Setting [4] is: cell free Mcl-1:Bim TR-FRET, recombinant human Mcl-1 (171-327).
Where [5] appears, read: Homo sapiens, OPM-2, 16 h, 16 h.
Where [6] appears, read: TR-FRET, 0.1 nM Mcl-1 (171-327), 0.05 nM biotin-Bim (51-76).
The mark [7] stands for this setting: Homo sapiens, OPM-2, 16 h, 16 h incubation.

In data set [1] (from C=CC[C@H](C)N(CC1CC1)S(=O)(=O)NC(=O)c1ccc2c(c1)N(C[C@@H]1CC[C@H]1[C@@H](O)C=C)C[C@@]1(CCCc3cc(Cl)ccc31)CO2, Hoveyda-Grubbs II, 1,2-dichloroethane, 1.5 mM, 50.0 °C, 24.0 h), `C[C@H]1CC=C[C@H](O)[C@@H]2CC[C@H]2CN2C[C@@]3(CCCc4cc(Cl)ccc43)COc3ccc(cc32)C(=O)NS(=O)(=O)N1CC1CC1` showed a ring closure, isolated yield of 45%.

On to `C=CC[C@@H](O)[C@H](C)S(=O)(=O)NC(=O)c1ccc2c(c1)N(C[C@@H]1CC[C@H]1[C@@H](O)/C=C/CCC)C[C@@]1(CCCc3cc(Cl)ccc31)CO2`, for which the ring closure, isolated yield in data set [1] (the molecule shown is the open-chain precursor, Hoveyda-Grubbs II (50 mol%), AcOH, 8.6 mM, 60.0 °C) was 24.5%.

On to `CO[C@H](C)C[C@H]1CC/C=C/[C@H](O)[C@@H]2CC[C@H]2CN2C[C@@]3(CCCc4cc(Cl)ccc43)COc3ccc(cc32)C(=O)NS1(=O)=O` (single isomer, unassigned) [Example 514], for which the values for the pIC50 in data set [2] (16 h) and in data set [3] (setting [4]) were 6.78 and 9.41, respectively.

For `O=C1NS(=O)(=O)CCCC[C@@H](O)[C@@H]2CC[C@H]2CN2C[C@@]3(CCCc4cc(Cl)ccc43)COc3ccc1cc32` [Example 222, (1S,3′R,6′R,7′R)-6-chloro-7′-hydroxy-3,4-dihydro-2H,14′H-spiro[naphthalene-1,21′-[19]oxa[12]thia[1,13]diazatetracyclo[13.7.2.0^3,6.0^18,23]tetracosa [15,17,23]trien]-14′-one 12′,12′-dioxide], the pIC50 in data set [2] (setting [5]) was 4.51; in data set [3] (setting [6]) it was 8.04.

In the case of `CC1CC=CC(O)C2CCC2CN2CC3(CCCc4cc(Cl)ccc43)COc3ccc(cc32)C(=O)NS(=O)(=O)N1Cc1ccccn1` (single isomer, unassigned) [Example 668], the pIC50 is 4.94 in data set [2] (setting [5]) and 7.77 in data set [3] (setting [4]).

With `CO[C@H]1/C=C/[C@H](C)C[C@@H](C)S(=O)(=O)NC(=O)c2ccc3c(c2)N(C[C@@H]2CC[C@H]21)C[C@@]1(CCCc2cc(Cl)ccc21)CO3` [Example 1016, (1S,3′R,6′R,7′S,8′E,10′R,12′R)-6-chloro-7′-methoxy-10′,12′-dimethyl-3,4-dihydro-2H,15′H-spiro[naphthalene-1,22′-[20]oxa[13]thia[1,14]diazatetracyclo[14.7.2.0^3,6.0^19,24]pentacosa [8,16,18,24]tetraen]-15′-one 13′,13′-dioxide], the pIC50 in data set [2] (setting [7]) was 6.54; in data set [3] (setting [6]), 9.32.

`COCC(C)OC1C=CCCC(C)S(=O)(=O)NC(=O)c2ccc3c(c2)N(CC2CCC21)CC1(CCCc2cc(Cl)ccc21)CO3` (mixture of isomers) [Example 955]: the pIC50 in data set [2] (16 h incubation) was 6.25; in data set [3] (setting [6]) it was 8.91.

As for `C[C@@H]1[C@@H](C)C/C=C/[C@H](OCCCO)[C@@H]2CC[C@H]2CN2C[C@@]3(CCCc4cc(Cl)ccc43)COc3ccc(cc32)C(=O)NS1(=O)=O` [Example 509, (1S,3′R,6′R,7′S,8′E,11′S,12′R)-6-chloro-7′-(3-hydroxypropoxy)-11′,12′-dimethyl-3,4-dihydro-2H,15′H-spiro[naphthalene-1,22′-[20]oxa[13]thia[1,14]diazatetracyclo[14.7.2.0^3,6.0^19,24]pentacosa [8,16,18,24]tetraen]-15′-one 13′,13′-dioxide], the pIC50 is 6.63 in data set [2] (setting [5]) and 9.73 in data set [3] (setting [4]).

In the case of `C[C@@H]1[C@@H](C)C/C=C/[C@H](O[C@H]2CCOC2=O)[C@@H]2CC[C@H]2CN2C[C@@]3(CCCc4cc(Cl)ccc43)COc3ccc(cc32)C(=O)NS1(=O)=O` (single isomer, unassigned) [Example 427], the negative-log IC50 (pIC50) in data set [2] (16 h) is 6.69; in data set [3] (setting [6]), 9.38.

On to `O=C1NS(=O)(=O)[C@H](C2CC2)CC/C=C/[C@H](O)[C@@H]2CC[C@H]2CN2C[C@@]3(CCCc4cc(Cl)ccc43)COc3ccc1cc32` (single isomer, unassigned) [Example 148], for which the negative-log IC50 (pIC50) in data set [2] (16 h) is 6.34; in data set [3] (setting [6]) it was 9.55.

Turning to `COCCO[C@H]1/C=C/C[C@H](C)[C@H](c2ccccc2)S(=O)(=O)NC(=O)c2ccc3c(c2)N(C[C@@H]2CC[C@H]21)C[C@@]1(CCCc2cc(Cl)ccc21)CO3` (single isomer, unassigned) [Example 671], the pIC50 in data set [2] (16 h) was 5.25; in data set [3] (setting [4]) it was 7.70.

As to `C[C@@H](O)C[C@@H]1CC/C=C\[C@H](O)[C@@H]2CC[C@H]2CN2C[C@@]3(CCCc4cc(Cl)ccc43)COc3ccc(cc32)C(=O)NS1(=O)=O` (single isomer, unassigned) [Example 550], the pIC50 in data set [2] (setting [5]) is 5.14; in data set [3] (setting [4]) it was 9.24.

Consider `C[C@@H]1[C@@H](C)C/C=C/[C@H](OCC(=O)N2CCC(F)(F)CC2)[C@@H]2CC[C@H]2CN2C[C@@]3(CCCc4cc(Cl)ccc43)COc3ccc(cc32)C(=O)NS1(=O)=O` [Example 315, (1S,3′R,6′R,7′S,8′E,11′S,12′R)-6-chloro-7′-(2-(4,4-difluoro-1-piperidinyl)-2-oxoethoxy)-11′,12′-dimethyl-3,4-dihydro-2H,15′H-spiro[naphthalene-1,22′-[20]oxa[13]thia[1,14]diazatetracyclo[14.7.2.0^3,6.0^19,24]pentacosa [8,16,18,24]tetraen]-15′-one 13′,13′-dioxide], for which the pIC50 was 6.38 in data set [2] (setting [5]) and 9.11 in data set [3] (setting [6]).

For `COC(=O)[C@@H]1CC/C=C/[C@H](O)[C@@H]2CC[C@H]2CN2C[C@@]3(CCCc4cc(Cl)ccc43)COc3ccc(cc32)C(=O)NS1(=O)=O` (single isomer, unassigned) [Example 160], the results for the negative logarithm of the IC50 (pIC50) in data set [2] (16 h) and in data set [3] (setting [6]) were 5.28 and 9.40, respectively.

On to `CCOC(=O)CO[C@H]1/C=C/C[C@H](C)[C@H](C)S(=O)(=O)NC(=O)c2ccc3c(c2)N(C[C@@H]2CC[C@H]21)C[C@@]1(CCCc2cc(Cl)ccc21)CO3` [Example 738, ethyl (((1S,3′R,6′R,7′S,8′E,11′S,12′S)-6-chloro-11′,12′-dimethyl-13′,13′-dioxido-15′-oxo-3,4-dihydro-2H-spiro[naphthalene-1,22′-[20]oxa[13]thia[1,14]diazatetracyclo[14.7.2.0^3,6.0^19,24]pentacosa[8,16,18,24]tetraen]-7′-yl)oxy)acetate], for which the pIC50 in data set [2] (setting [5]) is 5.75; in data set [3] (setting [4]) it was 8.49.

With `O=C1NS(=O)(=O)C/C=C/C2(O)CCOC(C2)C2CCC2CN2CC3(CCCc4cc(Cl)ccc43)COc3ccc1cc32` (single isomer, unassigned) [Example 851], the pIC50 in data set [2] (setting [5]) is 4.71; in data set [3] (setting [4]), 9.00.

For `COCCN1[C@@H](C)C/C=C/[C@H](O)[C@@H]2CC[C@H]2CN2C[C@@]3(CCCc4cc(Cl)ccc43)COc3ccc(cc32)C(=O)NS1(=O)=O` [Example 26, (1S,3′R,6′R,7′S,8′E,11′S)-6-chloro-7′-hydroxy-12′-(2-methoxyethyl)-11′-methyl-3,4-dihydro-2H,15′H-spiro[naphthalene-1,22′-[20]oxa[13]thia[1,12,14]triazatetracyclo[14.7.2.0^3,6.0^19,24]pentacosa[8,16,18,24]tetraen]-15′-one 13,13′-dioxide], the pIC50 was 6.51 in data set [2] (setting [5]) and 9.69 in data set [3] (setting [6]).

`O=C1NS(=O)(=O)[C@H]2CCCC[C@@H]2C/C=C/[C@H](O)[C@@H]2CC[C@H]2CN2C[C@@]3(CCCc4cc(Cl)ccc43)COc3ccc1cc32` (single isomer, unassigned) [Example 332]: the results for the pIC50 in data set [2] (setting [5]) and in data set [3] (setting [6]) were 5.25 and 8.41, respectively.

In the case of `CC[C@@H]1CC/C=C/[C@H](OC(N)=O)[C@@H]2CC[C@H]2CN2C[C@@]3(CCCc4cc(Cl)ccc43)COc3ccc(cc32)C(=O)NS1(=O)=O` [Example 610, (1S,3′R,6′R,7′S,8′E,12′R)-6-chloro-12′-ethyl-13′,13′-dioxido-15′-oxo-3,4-dihydro-2H-spiro[naphthalene-1,22′-[20]oxa[13]thia[1,14]diazatetracyclo[14.7.2.0^3,6.0^19,24]pentacosa [8,16,18,24]tetraen]-7′-yl carbamate], the pIC50 in data set [2] (setting [5]) is 5.94; in data set [3] (setting [4]), 9.03.

Consider `CO[C@H]1/C=C/[C@@H]2CCC[C@H](C2)S(=O)(=O)NC(=O)c2ccc3c(c2)N(C[C@@H]2CC[C@H]21)C[C@@]1(CCCc2cc(Cl)ccc21)CO3` (single isomer, unassigned) [Example 108], for which the values for the pIC50 in data set [2] (16 h) and in data set [3] (setting [6]) were 5.65 and 8.95, respectively.

In the case of `CC(C)OC(=O)CC1C(C)CC=CC(O)C2CCC2CN2CC3(CCCc4cc(Cl)ccc43)COc3ccc(cc32)C(=O)NS1(=O)=O` (single isomer, unassigned) [Example 566], the pIC50 in data set [2] (16 h) is 6.55; in data set [3] (setting [4]) it was 9.42.

For the compound `C[C@@H]1[C@@H](C)S(=O)(=O)NC(=O)c2ccc3c(c2)N(C[C@@H]2CC[C@H]2[C@H](O)/C=C/[C@@H]1C)C[C@@]1(CCCc2cc(Cl)ccc21)CO3` (single isomer, unassigned) [Example 1068], the pIC50 in data set [2] (16 h incubation) is 5.71; in data set [3] (setting [6]) it was 9.35.

On to `C[C@@H]1[C@@H](C)S(=O)(=O)NC(=O)c2ccc3c(c2)N(C[C@@H]2CC[C@H]2[C@@H](OCC(=O)N(C)C)/C=C/[C@@H]1C)C[C@@]1(CCCc2cc(Cl)ccc21)CO3` [Example 1052, 2-(((1S,3′R,6′R,7′S,8′E,10′S,11′S,12′R)-6-chloro-10′,11′,12′-trimethyl-13′,13′-dioxido-15′-oxo-3,4-dihydro-2H-spiro[naphthalene-1,22′-[20]oxa[13]thia[1,14]diazatetracyclo[14.7.2.0^3,6.0^19,24]pentacosa [8,16,18,24]tetraen]-7′-yl)oxy)-N,N-dimethylacetamide], for which the results for the pIC50 in data set [2] (setting [7]) and in data set [3] (setting [6]) were 7.02 and 9.96, respectively.

By pIC50 is commonly meant the negative decadic logarithm of the IC50, by convention in mol/L.
